Assays:
[1] = NA and DA tissue levels in heart and brain after administration of Compound 1; type: in vivo, mice and rats; details: mouse and rat, in vivo; mice and rats; after administration
From the text: (§1) Compound 1 ((R)-5-(2-aminoethyl)-1-(6,8-difluorochroman-3-yl)-1,3-dihydroimidazole-2-thione hydrochloride) is a new chemical entity that integrates a series of potent inhibitors of dopamine β-hydroxylase (DBH) that were designed and synthesised incorporating modifications to the core structure of nepicastat. The aim was to provide new DBH inhibitors exerting minimal effects on dopamine (DA) and noradrenaline (NA) levels in the brain. Compound 1 is in a fact a potent and peripherally-selective DBH inhibitor. […] Compound 1 is thus presented as a candidate for clinical evaluation for the treatment of chronic heart failure and hypertension. Compound 1, together with a series of related compounds, is described in WO 2004/033447.

[2] = system: dopamine β-hydroxylase (DBH); test: as above; type: in vivo, mice and rats
From the text: as §1

[3] = mice and rats, at Tmax (9 h after administration)

In the case of `Cl.NCCc1c[nH]c(=S)n1[C@H]1COc2c(F)cc(F)cc2C1` [Compound 1, (R)-5-(2-aminoethyl)-1-(6,8-difluorochroman-3-yl)-1,3-dihydroimidazole-2-thione hydrochloride], the Tmax [1] is reported as 9 h, the “DA tissue levels in brain” value ([2]; brain) is reported as “failed to affect” and the “NA tissue levels in brain” value ([2]; brain) is reported as “failed to affect”. The “NA levels in the left atrium” value [2, 3] was “reduced NA levels in a dose-dependent manner”, the “NA levels in the left ventricle” value [2, 3] was “reduced NA levels in a dose-dependent manner” and the “dose at which the maximal inhibitory effect on NA levels was attained” value ([2]; mice and rats, left atrium and left ventricle, 9 h after administration) was 100 mg/kg.

From patent publication US20090221656A1, “Drug Combinations” (priority 2006, published 2009)
